# From paper PMC5976465, “Triptolide, a HSP90 middle domain inhibitor, induces apoptosis in triple manner” (Oncotarget, 2018)
# Tests used:
# [1] = molecular target: T1, HSP90β (Homo sapiens, UniProt P08238, C366S); assay: colorimetric ATPase assay and MANT-ADP binding assay at […] TL; type: biochemical
# T1 construct: gene HSP90AB1; recombinant HSP90β C366S
# [2] = molecular target: T2, HSP90β (Homo sapiens, UniProt P08238); assay: colorimetric ATPase assay with recombinant protein; also MANT-ADP binding and CDC37 pulldown; type: biochemical
# T2 construct: gene HSP90AB1; recombinant HSP90β expressed in BL21(DE3) from pET52b
# T2 sequence (P08238 2-724): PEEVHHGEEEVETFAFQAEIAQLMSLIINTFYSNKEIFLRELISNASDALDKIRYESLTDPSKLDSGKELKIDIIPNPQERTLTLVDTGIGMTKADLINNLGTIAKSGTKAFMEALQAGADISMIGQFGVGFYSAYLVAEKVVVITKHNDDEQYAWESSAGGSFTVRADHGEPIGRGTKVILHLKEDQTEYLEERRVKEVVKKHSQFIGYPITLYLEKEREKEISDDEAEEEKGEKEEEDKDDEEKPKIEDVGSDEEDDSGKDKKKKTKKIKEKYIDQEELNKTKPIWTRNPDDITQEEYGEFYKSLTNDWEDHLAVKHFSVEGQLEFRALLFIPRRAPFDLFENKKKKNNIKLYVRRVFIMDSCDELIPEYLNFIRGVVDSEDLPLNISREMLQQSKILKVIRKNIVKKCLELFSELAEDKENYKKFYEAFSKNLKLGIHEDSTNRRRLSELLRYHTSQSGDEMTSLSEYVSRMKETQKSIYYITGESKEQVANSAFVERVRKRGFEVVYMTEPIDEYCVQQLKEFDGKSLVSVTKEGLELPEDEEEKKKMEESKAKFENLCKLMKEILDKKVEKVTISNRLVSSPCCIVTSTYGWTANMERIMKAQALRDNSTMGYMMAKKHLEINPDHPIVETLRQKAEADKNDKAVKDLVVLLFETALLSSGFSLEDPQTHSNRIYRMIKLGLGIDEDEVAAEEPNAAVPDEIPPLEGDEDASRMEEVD
# T1 sequence (P08238 2-724 C366S): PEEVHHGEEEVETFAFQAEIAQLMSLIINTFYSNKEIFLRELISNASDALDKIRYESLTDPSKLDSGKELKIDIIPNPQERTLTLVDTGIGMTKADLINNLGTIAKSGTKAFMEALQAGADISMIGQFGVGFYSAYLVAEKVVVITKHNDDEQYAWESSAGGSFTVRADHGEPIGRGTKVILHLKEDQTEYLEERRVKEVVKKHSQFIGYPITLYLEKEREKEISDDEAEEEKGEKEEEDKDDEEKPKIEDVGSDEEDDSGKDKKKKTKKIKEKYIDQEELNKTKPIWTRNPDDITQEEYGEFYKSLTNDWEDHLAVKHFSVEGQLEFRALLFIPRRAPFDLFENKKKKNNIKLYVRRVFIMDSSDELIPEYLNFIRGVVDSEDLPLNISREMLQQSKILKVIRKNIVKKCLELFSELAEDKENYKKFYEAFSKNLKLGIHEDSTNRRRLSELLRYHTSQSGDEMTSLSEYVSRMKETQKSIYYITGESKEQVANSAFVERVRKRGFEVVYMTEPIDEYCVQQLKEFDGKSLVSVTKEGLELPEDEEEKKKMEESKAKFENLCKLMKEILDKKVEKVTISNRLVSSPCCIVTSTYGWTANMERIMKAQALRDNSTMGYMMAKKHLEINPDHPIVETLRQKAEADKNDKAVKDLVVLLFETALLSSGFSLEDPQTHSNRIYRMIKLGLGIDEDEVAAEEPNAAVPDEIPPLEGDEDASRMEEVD
smiles,measurement,setting,value
"CC(C)[C@]12O[C@H]1[C@@H]1O[C@]13[C@]1(O[C@H]1C[C@H]1C4=C(CC[C@@]13C)C(=O)OC4)[C@@H]2O [TL, Triptolide]",colorimetric ATPase assay and MANT-ADP binding assay at 50 μM TL,[1],TL exhibited a similar inhibitory effect on both HSP90β^WT and HSP90β^C366S
same,IC50,[2],29.9 µM
